Experimental data as given in article PMC8305717, “4-Phenethyl-1-Propargylpiperidine-Derived Dual Inhibitors of Butyrylcholinesterase and Monoamine Oxidase B” (Molecules, 2021).
Values joined by “and” are separate entries in the source; they are usually repeats but may differ in a detail not shown here. Equal entries are not always repeated. “Also recorded” adds a separate entry of the source.

Assays:
MAO-B = conditions: binds covalently to N5 of FAD, crystal complex; cited from earlier work
hBChE [1] = molecular target: T1, hBChE (Homo sapiens, UniProt P06276); test: Ellman method cholinesterase assay, hBChE; assay type: biochemical; conditions: 5-min pre-incubation; for RA ± SD (%) at 100 µM, hBChE: residual activity at 100 µM compound, RA above 50% considered inactive; for IC50: 3 independent experiments, read-out: IC50 ± SEM, hBChE
T1 construct: gift from Xavier Brazzolotto, Florian Nachon and José Dias (IRBA, Brétigny-sur-Orge, France)
T1 sequence (P06276 29-602): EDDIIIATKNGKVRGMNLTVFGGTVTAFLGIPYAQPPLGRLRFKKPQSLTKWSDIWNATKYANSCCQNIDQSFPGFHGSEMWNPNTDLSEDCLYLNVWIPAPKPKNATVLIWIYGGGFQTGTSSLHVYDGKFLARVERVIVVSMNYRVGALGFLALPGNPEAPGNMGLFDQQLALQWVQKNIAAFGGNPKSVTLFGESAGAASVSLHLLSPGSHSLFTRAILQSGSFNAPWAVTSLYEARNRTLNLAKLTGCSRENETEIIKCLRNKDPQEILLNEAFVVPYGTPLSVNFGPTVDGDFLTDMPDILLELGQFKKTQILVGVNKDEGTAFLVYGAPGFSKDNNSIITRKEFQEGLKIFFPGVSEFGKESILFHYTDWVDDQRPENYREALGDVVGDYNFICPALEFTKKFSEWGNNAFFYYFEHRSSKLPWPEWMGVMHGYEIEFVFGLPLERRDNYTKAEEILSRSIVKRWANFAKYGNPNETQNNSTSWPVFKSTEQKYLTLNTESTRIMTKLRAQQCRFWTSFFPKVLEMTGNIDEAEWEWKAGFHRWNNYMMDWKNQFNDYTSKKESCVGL
Experimental: (§1) Inhibitory potencies against human (h)AChE and hBChE were determined using the Ellman method and inhibitory potencies against hMAO-A and hMAO-B were determined with horseradish peroxidase (HRP)-Amplex Red coupled assay.
(§2) The inhibitory potencies of the compounds against the ChEs were determined using the Ellman method. 5,5′-Dithiobis (2-nitrobenzoic acid) (Ellman’s reagent; DTNB, St. Louis, MO, USA), butyrylthiocholine iodide, and acetylthiocholine iodides were from Sigma-Aldrich. Recombinant hAChE and hBChE at the stock concentration of 16.5 mg/mL and 14.5 mg/mL, respectively, were kindly donated by Xavier Brazzolotto, Florian Nachon, and José Dias (IRBA, Brétigny-sur-Orge, France). The enzyme solutions were prepared by dilution of the concentrated stocks in 0.1 M phosphate-buffered solution (pH 8.0). The reactions were carried out in a final volume of 300 µL of 0.1 M phosphate-buffered solution, pH 8.0, containing 370 µM DTNB, 500 μM butyrylthiocholine/acetylthiocholine, and approximately 1 nM or 50 pM hBChE or hAChE, respectively. The reactions were started by the addition of the substrate after 5-min pre-incubation at room temperature. For time-dependency measurements of hBChE inhibition, the pre-incubation time was varied (i.e., 1 min, 5 min, 15 min, 30 min). The final content of the organic solvent (DMSO) was always 1%. The formation of the yellow 5-thio-2-nitrobenzoate anion as a result of the reaction of DTNB with the thiocholines was monitored for 1 min as the change in absorbance at 412 nm, using a 96-well microplate reader (SynergyTM H4; BioTek Instruments, Inc., USA). The initial velocities in the presence (vi) and the absence (vo) of the test compounds were calculated. The inhibitory potencies were expressed as the residual activities, according to RA = (vi − b)/(vo − b), where b is the blank value using phosphate buffer without ChEs. […] The IC50 values were obtained by plotting the residual ChEs activities against the applied inhibitor concentrations, with the experimental data fitted to a four-parameter logistic function (GraphPad Prism 9.0; GraphPad Software Inc., San Diego, CA, USA).

hAChE = molecular target: T2, hAChE (Homo sapiens, UniProt P22303); test: Ellman method cholinesterase assay, hAChE; assay type: biochemical; conditions: residual activity at 100 µM compound; 5-min pre-incubation; RA above 50% considered inactive; read-out: RA ± SD (%) at 100 µM, hAChE
T2 construct: gift from Xavier Brazzolotto, Florian Nachon and José Dias (IRBA, Brétigny-sur-Orge, France)
T2 sequence (P22303 32-614): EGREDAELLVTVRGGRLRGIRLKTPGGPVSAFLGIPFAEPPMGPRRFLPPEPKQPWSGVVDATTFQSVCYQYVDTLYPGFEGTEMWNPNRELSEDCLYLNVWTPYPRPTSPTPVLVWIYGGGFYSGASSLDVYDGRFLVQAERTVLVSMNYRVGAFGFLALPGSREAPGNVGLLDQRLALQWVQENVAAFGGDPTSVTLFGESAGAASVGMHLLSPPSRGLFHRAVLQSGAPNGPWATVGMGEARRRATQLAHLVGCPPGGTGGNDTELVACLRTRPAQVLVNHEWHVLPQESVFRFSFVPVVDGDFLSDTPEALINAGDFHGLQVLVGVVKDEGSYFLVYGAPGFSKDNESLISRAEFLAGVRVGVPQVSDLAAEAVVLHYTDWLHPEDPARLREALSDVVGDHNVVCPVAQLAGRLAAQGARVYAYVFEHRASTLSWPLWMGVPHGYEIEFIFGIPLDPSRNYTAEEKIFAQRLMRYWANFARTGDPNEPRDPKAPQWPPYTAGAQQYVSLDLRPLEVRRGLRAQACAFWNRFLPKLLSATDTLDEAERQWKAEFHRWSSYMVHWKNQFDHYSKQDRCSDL
Experimental: as §1, §2

hMAO-A = molecular target: T3, hMAO-A (Homo sapiens, UniProt P21397); test: HRP-Amplex Red coupled fluorimetric assay, hMAO-A; assay type: biochemical; conditions: 15 min incubation at 37 °C; for remaining activity at 100 µM: 0.25 h, residual activity at 100 µM compound, RA above 50% considered inactive, read-out: RA ± SD (%) at 100 µM, hMAO-A; for IC50: 3 independent experiments, read-out: IC50 ± SEM, hMAO-A
T3 construct: purchased Sigma Aldrich; host or cells: BTI-TN-5B1-4 insect cells
T3 sequence (P21397 1-527): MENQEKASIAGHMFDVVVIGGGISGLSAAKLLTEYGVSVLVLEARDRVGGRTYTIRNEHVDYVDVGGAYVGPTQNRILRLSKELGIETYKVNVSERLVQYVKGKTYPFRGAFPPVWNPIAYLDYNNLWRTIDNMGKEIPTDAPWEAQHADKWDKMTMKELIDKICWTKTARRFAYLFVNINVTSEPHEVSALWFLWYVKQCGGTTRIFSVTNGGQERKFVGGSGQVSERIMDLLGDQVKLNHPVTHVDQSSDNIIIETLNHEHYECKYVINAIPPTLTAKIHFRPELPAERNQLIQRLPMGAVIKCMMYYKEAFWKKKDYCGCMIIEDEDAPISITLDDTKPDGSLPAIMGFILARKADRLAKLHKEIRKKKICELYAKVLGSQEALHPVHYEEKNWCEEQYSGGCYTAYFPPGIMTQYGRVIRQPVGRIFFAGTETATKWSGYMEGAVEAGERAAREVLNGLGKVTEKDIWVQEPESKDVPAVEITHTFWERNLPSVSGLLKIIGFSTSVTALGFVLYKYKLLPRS
Experimental: as §1
(§3) The effects of the test compounds on hMAO were investigated using a fluorimetric assay. Recombinant hMAO, expressed in BTI-TN-5B1-4 insect cells, p-tyramine hydrochloride, and horse-radish peroxidase type II were purchased from Sigma Aldrich, whereas Amplex Red was synthesized as reported previously.
(§4) In brief, 100 µL 50 mM sodium phosphate buffer (pH 7.4, 0.05 vol.% Triton X-114) containing the compounds or the reference inhibitors and hMAO were incubated for 15 min at 37 °C. The reaction was started by adding Amplex Red (final concentration, 250 µM), horseradish peroxidase (final activity, 2 U/mL), and p-tyramine (final concentration, 1 mM). The fluorescence increase (λex = 530 nm, λem = 590 nm) at 37 °C was monitored for 20 min. DMSO was used for control experiments. To determine the blank value (b), phosphate-buffered solution replaced the enzyme. Each measurement was performed in duplicate. The inhibitory potencies were expressed as the residual activities (RA) and IC50 values as described in Section 3.2.1. For the reversibility assay, the previously described protocol was followed.

hMAO-B [2] = molecular target: T4, hMAO-B (Homo sapiens, UniProt P27338); test: HRP-Amplex Red coupled fluorimetric assay, hMAO-B; assay type: biochemical; conditions: 15 min incubation at 37 °C; 3 independent experiments; read-out: IC50 ± SEM, hMAO-B
T4 construct: purchased Sigma Aldrich; host or cells: BTI-TN-5B1-4 insect cells
T4 sequence (P27338 1-520): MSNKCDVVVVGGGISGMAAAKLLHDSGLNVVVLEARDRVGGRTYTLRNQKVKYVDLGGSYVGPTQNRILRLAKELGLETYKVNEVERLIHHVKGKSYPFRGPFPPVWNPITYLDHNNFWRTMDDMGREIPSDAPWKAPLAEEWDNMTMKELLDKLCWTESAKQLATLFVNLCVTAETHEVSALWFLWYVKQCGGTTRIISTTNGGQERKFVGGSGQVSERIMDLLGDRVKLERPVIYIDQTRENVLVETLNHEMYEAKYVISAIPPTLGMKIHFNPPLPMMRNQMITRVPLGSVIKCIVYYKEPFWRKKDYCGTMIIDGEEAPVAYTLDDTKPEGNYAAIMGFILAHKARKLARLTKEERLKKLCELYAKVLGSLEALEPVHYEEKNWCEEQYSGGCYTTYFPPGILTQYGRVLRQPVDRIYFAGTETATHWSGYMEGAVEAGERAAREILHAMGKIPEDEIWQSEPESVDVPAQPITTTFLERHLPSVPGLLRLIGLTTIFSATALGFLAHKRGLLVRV
Experimental: as §1, §3, §4

hMAO-B [3] = molecular target: T4, hMAO-B; test: hMAO-B 100-fold dilution reversibility assay and IC50 shift at various pre-incubation times; assay type: biochemical; conditions: for Reversibility of hMAO-B inhibition: 100-fold dilution assay; for Time-dependence of hMAO-B inhibition (IC50 shift): various pre-incubation times
Experimental: as §4
The reversibility was analyzed by one-way ANOVA and post-hoc comparisons were made using two-tailed Student’s t-test. p < 0.05—statistically significant. All data are means ± SEM (n = 2).
Figure 5 (A) A 100-fold dilution assay for hMAO-B inhibitors 12–14. L-Deprenyl was used as an irreversible inhibitor control; safinamide and isatin were used as reversible inhibitor controls. Data are mean values ± SEM (n = 2; each in quadruplicate): ∗, p < 0.05 (one-way ANOVA, with Bonferroni correction, followed by t-tests).

hBChE [4] = molecular target: T1, hBChE; test: hBChE time-dependency measurements (IC50 shift, varied pre-incubation time); assay type: biochemical; conditions: pre-incubation 1, 5, 15, 30 min
Experimental: as §2
Figure 7 The IC50 shift curves for compounds 13–15 during hBChE inhibition.

Row | Compound | MAO-B inhibition, type (MAO-B) | RA ± SD (%) at 100 µM, hBChE (hBChE [1]) [%] | remaining activity at 100 µM (hAChE) [%] | remaining activity at 100 µM (hMAO-A) [%] | IC50 (hMAO-B [2]) | IC50 (hMAO-A) [µM] | Reversibility of hMAO-B inhibition (hMAO-B [3]) | Time-dependence of hMAO-B inhibition (IC50 shift) (hMAO-B [3]) | IC50 (hBChE [1]) | Time-dependence of hBChE inhibition (IC50 shift) (hBChE [4])
1 | C#CCN1CCC(/C=C/c2ccc(F)cc2)CC1 [A] | potent and irreversible MAO-B inhibitor |  |  |  |  |  |  |  |  | 
2 | C#CCN1CCC(/C=C/c2ccc(OC)cc2)CC1 [Compound 6, (E)-4-(4-methoxystyryl)-1-(prop-2-yn-1-yl)piperidine] |  | 68.8 ± 0.6 | 61.9 ± 1.2 | 52.6 ± 0.7 |  |  |  |  |  | 
3 | C#CCN1CCC(CCc2ccc(OC)cc2)CC1 [Compound 7, 4-(4-methoxyphenethyl)-1-(prop-2-yn-1-yl)piperidine] |  | 51.2 ± 1.6 | 73.1 ± 4.3 | 62.2 ± 1.8 |  |  |  |  |  | 
4 | C#CCN1CCC(CCc2cccc(OC)c2)CC1 [Compound 8, 4-(3-methoxyphenethyl)-1-(prop-2-yn-1-yl)piperidine] |  | 55.5 ± 0.2 | 73.2 ± 8.9 | 59.8 ± 3.7 | 0.238 ± 0.0269 µM |  |  |  |  | 
5 | C#CCN1CCC(/C=C/c2ccc(O)cc2)CC1 [Compound 9, (E)-4-(2-(1-(prop-2-yn-1-yl)piperidin-4-yl)vinyl)phenol] |  | 64.9 ± 2.0 | 65.9 ± 3.1 |  | 12.9 ± 1.1 µM | 15.5 ± 0.9 |  |  |  | 
6 | C#CCN1CCC(CCc2ccc(O)cc2)CC1 [Compound 10, 4-(2-(1-(prop-2-yn-1-yl)piperidin-4-yl)ethyl)phenol] |  | 53.8 ± 0.6 | 61.4 ± 2.7 |  |  | 34 ± 5.8 |  |  |  | 
7 | C#CCN1CCC(CCc2cccc(O)c2)CC1 [Compound 11, 3-(2-(1-(prop-2-yn-1-yl)piperidin-4-yl)ethyl)phenol] |  | 72.9 ± 2.8 | 54.7 ± 2.9 | 63.3 ± 0.4 | 52.5 ± 14.8 µM |  |  |  |  | 
8 | C#CCN1CCC(CCc2ccc(OC(=O)Nc3ccccc3)cc2)CC1 [Compound 12, 4-(2-(1-(prop-2-yn-1-yl)piperidin-4-yl)ethyl)phenyl phenylcarbamate] |  | 60.2 ± 1.8 | 52.2 ± 1.7 | 56.7 ± 0.9 | 9.7 ± 1.2 µM |  | reversible | absence of IC50 shift; also recorded: did not exhibit time-dependent inhibition |  | 
9 | C#CCN1CCC(CCc2cccc(OC(=O)Nc3ccccc3)c2)CC1 [Compound 13, 3-(2-(1-(prop-2-yn-1-yl)piperidin-4-yl)ethyl)phenyl phenylcarbamate] |  |  | 51.9 ± 1.4 | 54 ± 0.4 | 23.6 ± 3 µM |  | reversible | absence of IC50 shift; also recorded: did not exhibit time-dependent inhibition | 4.4 ± 0.8 µM | IC50 shift was absent
10 | C#CCN1CCC(CCc2ccc(OC(=O)N(C)CC)cc2)CC1 [Compound 14, 4-(2-(1-(prop-2-yn-1-yl)piperidin-4-yl)ethyl)phenyl ethyl(methyl)carbamate] |  |  | 66.1 ± 4.8 | 51.2 ± 1.5 | 0.181 ± 0.0287 µM |  | irreversible | time-dependent hMAO-B inhibition | 75.5 ± 8.4 µM | IC50 shift was absent
11 | C#CCN1CCC(CCc2cccc(OC(=O)N(C)CC)c2)CC1 [Compound 15, 3-(2-(1-(prop-2-yn-1-yl)piperidin-4-yl)ethyl)phenyl ethyl(methyl)carbamate] |  |  | 60.2 ± 1.8 | 69.4 ± 9.4 | 4.3 µM and 8.5 µM |  |  |  | 8.5 µM and 4.3 µM | time-dependent inhibition
